Assay results as given in US11027027B2, “Pyridazinoindole compounds and methods for PET imaging” (Vanderbilt University, priority 2015, dated 2021).
Like-named read-outs stand apart in the source and are kept apart here.

Columns and labels:
[1] = Radio-TLC radiometabolite analysis of plasma; assay type: in vivo, rat; conditions: plasma samples, n=2, preliminary
Description: (§1) Uptake Characteristics of [^18F]-14 in C6 Glioma. The in vivo performance of [^18F]-14 was evaluated in glioma-bearing (C6), male Wistar rats using microPET imaging, with a typical study shown in FIG. 1. MRI (T2-weighted) was used to localize tumors and for registration of anatomical features with PET (FIG. 1A).^11,12,18 Dynamic PET imaging with [^18F]-14 illustrated that the majority of tracer accumulation in the brain was localized to the tumor, with modest accumulation that exceeded plasma in contralateral, non-tumor brain (FIGS. 1B & 1C). The tumor-selective characteristics of [^18F]-14 afforded excellent imaging contrast between tumor and contralateral tissue. FIG. 1G illustrates time—activity curves (TACs) typical of representative studies for tumor (blue), normal brain (green), and plasma (red) over a 90-min dynamic acquisition.
Arterial blood (500 μL) was collected at 2, 12, 30, and 60 minutes following injection of 1.5 mCi of [^18F]-14. After centrifugation, the plasma was extracted with acetonitrile/water (50 μL, 7/1, v/v). The mixture was then centrifuged and the supernatant used for TLC analysis in 10% dichloromethane in methanol. Radiochromatographic data were recorded and collected using a radioisotope detector (Bioscan, Washington, D.C., USA).

TSPO [2] = target: T1, TSPO (Rattus norvegicus, UniProt P16257); assay: In vivo PET displacement study with non-radioactive 14 in C6-bearing rats; design: frozen and thawed three times in lysis buffer; endogenous in cells; host or cells: C6 rat glioma cells
Description: Specific Binding of [^18F]-14 in Rats. To evaluate the in vivo TSPO specificity of [^18F]-14, the present inventors performed displacement studies in C6-bearing rats using the non-radioactive analog (14). As shown in the TAC in FIG. 1H, during the dynamic PET study, a bolus (IV) infusion of nonradioactive 14 (10 mg/kg) was administered approximately 30 minutes after injection of [^18F]-14. […] During tumor displacement, the present inventors observed a minor influx of tracer into normal brain (green). The displaced [^18F]-14 then rapidly cleared the normal brain and entered the plasma, subsequently elevating plasma (red) radioactivity.
PET/CT was performed within 24 hours of MRI in rats with confirmed tumors. Tumor-bearing rats were administered [^18F]-14 via jugular catheter while in a microPET Focus 220 scanner (Siemens, Munich, Del.). Data were collected in list-mode format for 90 minutes, followed by a CT scan (microCAT II; Siemens) for attenuation correction.
The dynamic PET acquisition was divided into twelve 10-s frames for the first two minutes, three 60-second frames for the following three minutes, and seventeen 300-second frames for the duration of the scan. The raw data within each frame were then binned into three-dimensional sinograms, with a span of three and ring difference of 47. […]

C6 glioma = assay: Dynamic microPET imaging of tracer uptake in C6 glioma-bearing rats; assay type: in vivo, rat
Description: as §1
All studies involving animals were conducted in compliance with federal and institutional guidelines. Two weeks before imaging, healthy male Wistar rats were stereotactically inculcated in the right hemisphere with 1.0×10^5 C6 glioma cells (American Type Tissue Collection). Prior to imaging, all rats were affixed with venous and arterial catheters.
PET/CT was performed within 24 hours of MRI in rats with confirmed tumors. Tumor-bearing rats were administered [^18F]-14 via jugular catheter while in a microPET Focus 220 scanner (Siemens, Munich, Del.). […]

TSPO [3] = target: T1, TSPO; assay: TSPO radiometric binding assay, kidney lysate, displacement of [3H]PK11195
Description: (§2) Affinities are expressed as Ki±S.E.M. (pM) in Table 1. All experiments were performed in triplicate.
(§3) Male Wistar rats were sacrificed and the heart and kidney collected and dissected. The tissues were homogenized in 20 volumes of ice-cold PBS buffer (pH 7.4) with a Brinkmann microhomogenizer (Kinematica AG, Luzern, SW). The homogenate was collected at a protein concentration of 5.0 mg/mL and stored at −80° C. C6 cells were collected and washed with PBS buffer three times, and then frozen and thawed three times in lysis buffer (5.0 mM HEPES, 0.21 M D-mannitol, 0.07 M sucrose, 2.0 mM benzamidine, 2.0 mM toluenesulfonyl fluoride, 4.0 mM MgCl2, pH 7.4) to produce C6 cell lysate (0.5 mg/mL). […] The reaction was terminated by rapid filtration through a Brandel harvester (Gaithersburg, Md., USA) and collection onto a filter presoaked with 0.3% polyethyleneimine. Filters were then punched out into scintillation vials and bound radioactivity measured on a Beckman LS 6000 Scintillation Counter (Brea, Calif., USA). […] All experiments were performed in triplicate.

TSPO [4] = target: T1, TSPO; assay: Binding affinity to TSPO of fluorescent probes
Description: Binding affinity to TSPO of fluorescent probes 23-29.

TSPO [5] = target: T1, TSPO; assay: TSPO radiometric binding assay, C6 glioma cell lysate, displacement of [3H]PK11195; design: frozen and thawed three times in lysis buffer; endogenous in cells; host or cells: C6 rat glioma cells
Description: as §2, §3

TSPO [6] = target: T1, TSPO; assay: TSPO radiometric binding assay, heart lysate, displacement of [3H]PK11195
Description: as §2, §3

[7] = target: central benzodiazepine receptor (CBR); conditions: value used to calculate Ki; read-out: Kd for flunitrazepam; cited from earlier work
PBR = PBR (Homo sapiens, UniProt P30536); conditions: cited from earlier work
PBR, sequence (P30536 whole entry, species assumed): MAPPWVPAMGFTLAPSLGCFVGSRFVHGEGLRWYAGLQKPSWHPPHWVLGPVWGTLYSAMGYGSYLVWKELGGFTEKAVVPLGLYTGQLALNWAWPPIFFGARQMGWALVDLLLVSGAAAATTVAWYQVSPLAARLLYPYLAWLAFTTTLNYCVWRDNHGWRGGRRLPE

TSPO [8] = target: T1, TSPO; design: frozen and thawed three times in lysis buffer; endogenous in cells; host or cells: C6 rat glioma cells; conditions: cited from earlier work
[9] = target: central benzodiazepine receptor (CBR); assay: CBR binding assay, displacement of [3H]flunitrazepam in rat brain (cerebral cortex) lysate; conditions: rat brain lysate / cerebral cortex membranes; selectivity for TSPO over CBR; read-out: Ki versus [3H]flunitrazepam
Description: as §2
The homogenate was collected at a protein concentration of 5.0 mg/mL and stored at −80° C. […] All experiments were performed in triplicate.

[10] = Ki ± S.E.M. versus [3H]PK11195, C6 lysate, high-affinity value where binding is mixed, triplicate, read-out: C6 Glioma Ki
[11] = versus [3H]PK11195, C6 lysate, low-affinity component, read-out: C6 Glioma Ki, low-affinity binding (mixed affinity binding)
[12] = Ki ± S.E.M. versus [3H]PK11195, rat heart lysate, triplicate

SMILES: CN(C)C(=O)Cc1nn(-c2cccc([18F])n2)c(=O)c2c1c1ccc(Cl)cc1n2C [[^18F]-14, 7-chloro-N,N,5-trimethyl-4-oxo-3(6-[^18F]fluoropyridin-2-yl)-3,5-dihydro-4H-pyridazino[4,5-b]indole-1-acetamide]
- % parent at 60 min [1]: > 90%
- tumor binding after injection of 14, % of the peak tumor uptake (TSPO [2]; bolus IV nonradioactive 14 (10 mg/kg) about 30 min after tracer): approximately 40%
- displaceability by non-radioactive 14 (TSPO [2]; non-radioactive 14 given halfway through the PET scan): fully displaceable
- tracer accumulation in normal brain and tumor (C6 glioma; preclinical model of glioma (C6), PET): modest accumulation in normal brain, yet robust accumulation in tumor tissue
- plasma clearance of tracer (C6 glioma; time-activity curve, 90-min dynamic acquisition): quickly cleared the plasma

SMILES: CN(C)C(=O)Cc1nn(-c2ccccc2F)c(=O)c2c1c1ccc(Cl)cc1n2C [Compound 9, 2-(7-Chloro-3-(2-fluorophenyl)-5-methyl-4-oxo-4,5-dihydro-3H-pyridazino[4,5-b]indol-1-yl)-N,N-dimethylacetamide]
- Ki (TSPO [3]; read-out: Kidney Ki): 0.00118 ± 4e-05 nM

SMILES: CCc1cc(CC)n2nc(-c3ccc(OCCCNC(=S)Nc4ccc5c(c4)C(=O)OC54c5ccc(O)cc5Oc5cc(O)ccc54)cc3)c(CC(=O)N(CC)CC)c2n1 [Compound 24]
- Ki (TSPO [4]): 111 ± 25.6 nM

SMILES: CN(C)C(=O)Cc1nn(-c2cccc(Cl)n2)c(=O)c2c1c1ccc(Cl)cc1n2C [Compound 15, 2-(7-Chloro-3-(6-chloropyridin-2-yl)-5-methyl-4-oxo-4,5-dihydro-3H-pyridazino[4,5-b]indol-1-yl)-N,N-dimethylacetamide]
- Ki (TSPO [5]; [10]): 0.00234 ± 0.0004 nM

SMILES: CN(C)C(=O)Cc1nn(-c2cccc([N+](=O)[O-])c2)c(=O)c2c1c1ccc(Cl)cc1n2C [Compound 11, 2-(7-Chloro-5-methyl-3-(3-nitrophenyl)-4-oxo-4,5-dihydro-3H-pyridazino[4,5-b]indol-1-yl)-N,N-dimethylacetamide]
- Ki (TSPO [6]): 0.00118 ± 9e-05 nM

SMILES: CCc1cc(CC)n2nc(-c3ccc(OCCNC(=S)Nc4ccc5c(c4)C(=O)OC54c5ccc(O)cc5Oc5cc(O)ccc54)cc3)c(CC(=O)N(CC)CC)c2n1 [Compound 23]
- Ki (TSPO [4]): 13.8 ± 4.99 nM

SMILES: CN(C)C(=O)Cc1nn(-c2cccc(Br)n2)c(=O)c2c1c1ccc(Cl)cc1n2C [Compound 16, 2-(7-Chloro-3-(6-bromopyridin-2-yl)-5-methyl-4-oxo-4,5-dihydro-3H-pyridazino[4,5-b]indol-1-yl)-N,N-dimethylacetamide]
- Ki (TSPO [5]; [10]): 0.00148 ± 0.0002 nM

SMILES: CN(C)C(=O)Cc1nn(-c2ccc(F)cc2)c(=O)c2c1c1ccc(Cl)cc1n2C [Compound 12, 2-(7-Chloro-3-(4-fluorophenyl)-5-methyl-4-oxo-4,5-dihydro-3H-pyridazino[4,5-b]indol-1-yl)-N,N-dimethylacetamide]
- Ki (TSPO [5]; [11]): 3.02 ± 1.01 nM
- Ki (TSPO [3]; read-out: Kidney Ki, low-affinity binding (mixed affinity binding)): 0.969 nM

SMILES: CN1C(=O)CN=C(c2ccccc2F)c2cc([N+](=O)[O-])ccc21 [flunitrazepam]
- Kd [7]: 1.1 nM

SMILES: COc1ccc(OC)c(CN(C(C)=O)c2cc(F)ccc2Oc2ccccc2)c1 [DAA1106]
- binding affinity for PBR (PBR): fentomolar

SMILES: CCc1cc(CC)n2nc(-c3ccc(OCC[18F])cc3)c(CC(=O)N(CC)CC)c2n1 [[^18F]-2b, 2-(5,7-diethyl-2-(4-(2-[^18F]fluoroethoxy)phenyl)pyrazolo[1,5-a]pyrimidin-3-yl)-N,N-diethylacetamide]
- enhancement in affinity compared to [18F]-2a (TSPO [8]; TSPO): 36 fold

SMILES: CCc1cc(CC)n2nc(-c3ccc(OCCCCCCCNC(=S)Nc4ccc5c(c4)C(=O)OC54c5ccc(O)cc5Oc5cc(O)ccc54)cc3)c(CC(=O)N(CC)CC)c2n1 [Compound 28]
- Ki (TSPO [4]): 16.3 ± 5.01 nM

SMILES: COc1ccc(OC)c(CN(C(=O)CF)c2ccccc2Oc2ccccc2)c1 [Compound 1, reference compound]
- Ki (TSPO [8]; read-out: Ki for TSPO in C6 glioma (reported), literature values): 6.17 nM

SMILES: CN(C)C(=O)Cc1nn(-c2ccccn2)c(=O)c2c1c1ccc(Cl)cc1n2C [Compound 13, 2-(7-Chloro-5-methyl-4-oxo-3-(pyridin-2-yl)-4,5-dihydro-3H-pyridazino[4,5-b]indol-1-yl)-N,N-dimethylacetamide]
- Ki (TSPO [6]): 4.94 nM
- Heart Ki (TSPO [6]; [12]): did not appreciably bind TSPO
- C6 Glioma Ki (TSPO [5]; Ki ± S.E.M. versus [3H]PK11195, C6 lysate, high-affinity value where binding is mixed, triplicate): did not appreciably bind TSPO
- Ki (TSPO [5]; [10]): 2.41 nM
- Kidney Ki (TSPO [3]; Ki ± S.E.M. versus [3H]PK11195, rat kidney lysate, high-affinity value where binding is mixed, triplicate): did not appreciably bind TSPO
- Ki (TSPO [3]; read-out: Kidney Ki): 6.8 nM

SMILES: CCc1cc(CC)n2nc(-c3ccc(OCCCCCCCCNC(=S)Nc4ccc5c(c4)C(=O)OC54c5ccc(O)cc5Oc5cc(O)ccc54)cc3)c(CC(=O)N(CC)CC)c2n1 [Compound 29]
- Ki (TSPO [4]): 0.31 ± 0.02 nM

SMILES: CCc1cc(CC)n2nc(-c3ccc(OCCCCCCNC(=S)Nc4ccc5c(c4)C(=O)OC54c5ccc(O)cc5Oc5cc(O)ccc54)cc3)c(CC(=O)N(CC)CC)c2n1 [Compound 27]
- Ki (TSPO [4]): 11.7 ± 4.86 nM

SMILES: CCc1cc(CC)n2nc(-c3ccc(OCCCCCNC(=S)Nc4ccc5c(c4)C(=O)OC54c5ccc(O)cc5Oc5cc(O)ccc54)cc3)c(CC(=O)N(CC)CC)c2n1 [Compound 26]
- Ki (TSPO [4]): 185 ± 15.4 nM

SMILES: CN(C)C(=O)Cc1nn(-c2cccc(F)n2)c(=O)c2c1c1ccc(Cl)cc1n2C [Compound 14, 2-(7-Chloro-3-(6-fluoropyridin-2-yl)-5-methyl-4-oxo-4,5-dihydro-3H-pyridazino[4,5-b]indol-1-yl)-N,N-dimethylacetamide]
- Ki (TSPO [6]; [12]): 0.00321 ± 0.0004 nM
- Ki (TSPO [5]; [10]): 0.00119 nM
- increase in potency over 2b (TSPO [5]; TSPO, in our lab): 1000 fold
- Ki (TSPO [5]; [11]): 1.77 nM
- Ki [9]: > 10000 nM
- Ki (TSPO [3]; Ki ± S.E.M. versus [3H]PK11195, rat kidney lysate, high-affinity value where binding is mixed, triplicate, read-out: Kidney Ki): 0.00221 ± 0.0004 nM
